According to PubChem BioAssay (NCI):
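Cells were grown in 96-well plates and exposed to each compound for 48 hours at five concentrations; endpoints were interpolated linearly between bracketing concentrations, or set to the highest concentration if not reached. GI50: concentration for 50% inhibition of growth. TGI denotes the concentration required for complete inhibition of growth.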

How the values were obtained:
Assay in all cases: DTP human tumour cell line panel, 48 h
[1] = tested on: 786-0 renal
[2] = tested on: A498 renal
[3] = tested on: A549 NSCLC
[4] = tested on: ACHN renal
[5] = tested on: BT-549 breast
[6] = tested on: CAKI-1 renal
[7] = tested on: CCRF-CEM leukemia
[8] = tested on: COLO 205 colon
[9] = tested on: DU-145 prostate
[10] = tested on: EKVX NSCLC
[11] = tested on: HCT-15 colon
[12] = tested on: HL-60(TB) leukemia
[13] = tested on: HOP-62 NSCLC
[14] = tested on: HOP-92 NSCLC
[15] = tested on: HS 578T breast
[16] = tested on: HT29 colon
[17] = tested on: IGROV1 ovarian
[18] = tested on: K-562 leukemia
[19] = tested on: KM12 colon
[20] = tested on: LOX IMVI melanoma
[21] = tested on: M14 melanoma
[22] = tested on: MALME-3M melanoma
[23] = tested on: MCF7 breast
[24] = tested on: MDA-MB-231 breast
[25] = tested on: MDA-MB-435
[26] = tested on: MOLT-4 leukemia
[27] = tested on: NCI-H226 lung
[28] = tested on: NCI-H23 lung
[29] = tested on: NCI-H460 lung
[30] = tested on: NCI-H522 lung
[31] = tested on: OVCAR-3 ovarian
[32] = tested on: OVCAR-4 ovarian
[33] = tested on: OVCAR-5 ovarian
[34] = tested on: OVCAR-8 ovarian
[35] = tested on: PC-3 prostate
[36] = tested on: RPMI-8226 leukemia
[37] = tested on: RXF 393 renal
[38] = tested on: SF-268 CNS
[39] = tested on: SF-295 CNS
[40] = tested on: SF-539 CNS
[41] = tested on: SK-MEL-2 melanoma
[42] = tested on: SK-MEL-28 melanoma
[43] = tested on: SK-MEL-5 melanoma
[44] = tested on: SK-OV-3 ovarian
[45] = tested on: SN12C renal
[46] = tested on: SNB-19 CNS
[47] = tested on: SNB-75 CNS
[48] = tested on: SR leukemia
[49] = tested on: SW-620 colon
[50] = tested on: T-47D breast
[51] = tested on: TK-10 renal
[52] = tested on: U251 CNS
[53] = tested on: UACC-257 melanoma
[54] = tested on: UACC-62 melanoma
[55] = tested on: UO-31 renal

## CCOC(=O)c1sc(-c2ccc(OS(=O)(=O)C[C@]34CCC(CC3=O)C4(C)C)c(C=O)c2)nc1C
[1]
  GI50: 1390 nM
  TGI: 4090 nM
[2]
  GI50: 127 nM
  TGI: 1170 nM
[3]
  GI50: 1250 nM
  TGI: > 50000 nM
[4]
  GI50: 1300 nM
  TGI: 3710 nM
[5]
  GI50: 916 nM
  TGI: 2480 nM
[6]
  GI50: 667 nM
  TGI: 2670 nM
[7]
  GI50: 1010 nM
  TGI: > 50000 nM
[8]
  GI50: 1070 nM
  TGI: 2620 nM
[9]
  GI50: 1550 nM
  TGI: > 50000 nM
[10]
  GI50: 1300 nM
  TGI: > 50000 nM
[11]
  GI50: 761 nM
  TGI: 1690 nM
[12]
  GI50: 1270 nM
  TGI: 3290 nM
[13]
  GI50: 1210 nM
  TGI: 3270 nM
[14]
  GI50: 951 nM
  TGI: 3700 nM
[15]
  GI50: 1320 nM
  TGI: 4230 nM
[16]
  GI50: 1230 nM
  TGI: 3340 nM
[17]
  GI50: 1070 nM
  TGI: 2850 nM
[18]
  GI50: 753 nM
  TGI: > 13500 nM
[19]
  GI50: 1300 nM
  TGI: 3540 nM
[20]
  GI50: 1050 nM
  TGI: 2340 nM
[21]
  GI50: 1090 nM
  TGI: 2450 nM
[22]
  GI50: 1080 nM
  TGI: 2650 nM
[23]
  GI50: 858 nM
  TGI: 2470 nM
[24]
  GI50: 1030 nM
  TGI: 2660 nM
[25]
  GI50: 1060 nM
  TGI: 2760 nM
[26]
  GI50: 797 nM
  TGI: 2220 nM
[27]
  GI50: 943 nM
  TGI: 2720 nM
[28]
  GI50: 1040 nM
  TGI: 2640 nM
[29]
  GI50: 1030 nM
  TGI: 3240 nM
[30]
  GI50: 1020 nM
  TGI: 2890 nM
[31]
  GI50: 904 nM
  TGI: 2720 nM
[32]
  GI50: 1490 nM
  TGI: > 50000 nM
[33]
  GI50: 970 nM
  TGI: 2680 nM
[34]
  GI50: 1530 nM
  TGI: > 50000 nM
[35]
  GI50: 1400 nM
  TGI: > 50000 nM
[36]
  GI50: 822 nM
  TGI: 3190 nM
[37]
  GI50: 943 nM
  TGI: 2750 nM
[38]
  GI50: 954 nM
  TGI: 2470 nM
[39]
  GI50: 1160 nM
  TGI: 2850 nM
[40]
  GI50: 908 nM
  TGI: 1850 nM
[41]
  GI50: 1130 nM
  TGI: 2690 nM
[42]
  GI50: 982 nM
  TGI: 2120 nM
[43]
  GI50: 877 nM
  TGI: 1590 nM
[44]
  GI50: 1300 nM
  TGI: 4090 nM
[45]
  GI50: 1410 nM
  TGI: 4580 nM
[46]
  GI50: 898 nM
  TGI: 2150 nM
[47]
  GI50: 781 nM
  TGI: 2800 nM
[48]
  GI50: 660 nM
  TGI: 3270 nM
[49]
  GI50: 1040 nM
  TGI: 2690 nM
[50]
  GI50: 780 nM
  TGI: 2460 nM
[51]
  GI50: 721 nM
  TGI: 4480 nM
[52]
  GI50: 694 nM
  TGI: 1430 nM
[53]
  GI50: 1260 nM
  TGI: 3660 nM
[54]
  GI50: 745 nM
  TGI: 1760 nM
[55]
  GI50: 1050 nM
  TGI: 4650 nM
